The record followed here is patent publication US10174016B2 (BAYER AKTIENGESELLSCHAFT, priority 2014, dated 2019).

One experiment addresses human P2X3 receptor (Homo sapiens (Human), UniProt P56373). The experiment in a line: Intracellular calcium measurement (FLIPR, Fluo-4) of antagonist activity at human P2X3 receptors. In kind it is cell-based. Conditions: human P2X3, FLIPR calcium assay, agonist α,β-Me-ATP; read-out: hP2X3 IC50. The method, then: (§1) Intracellular Calcium Measurement to Assess Antagonist Activity at Human P2X3 and Human P2X2/3 Receptors
(§2) A fluorescent imaging plate reader (FLEX/FLIPR station; Molecular Devices) was used to monitor intracellular calcium levels using the calcium-chelating dye Fluo-4 (Molecular Probes). […] Cells expressing purinergic receptors P2X3 (human) or P2X2/3 (human) were plated at a density of 15,000 cells/well in collagen-coated 384-well plates approximately 20 hours before beginning the assay. […] The test compound was added in a volume of 5 μl and allowed to incubate for 30 min at 37° C. The final assay DMSO concentration is 1%. The agonist, α,β-Me-ATP, was added in a volume of 20 μl at a concentration representing the EC80 value. The fluorescence was measured for an interval of 90 sec at 2 sec intervals and analyzed based on the increase in peak relative fluorescence units (RFU) compared to the basal fluorescence. Peak fluorescence was used to determine the response to agonist obtained at each concentration of test compound by the following equation: % Response=100*(RFU(test compound)−RFU(control)/RFU(DMSO)−RFU(control))
(§3) The Examples were tested in triplicates per plate and mean values were plotted in Excel XLFit to determine IC50 values at the human P2X3 and human P2X2/3 receptors, percentage of maximal inhibition and the Hill coefficients.

A further experiment addresses human P2X2/3 receptor (Homo sapiens (Human), UniProt P56373+Q9UBL9). As to the kind of experiment: Intracellular calcium measurement (FLIPR, Fluo-4) of antagonist activity at human P2X2/3 receptors. In kind it is cell-based. The note with it: human P2X2/3, FLIPR calcium assay, agonist α,β-Me-ATP; read-out: hP2X2/3 IC50. The procedure: as §1, §2, §3
A general note: Calcium flux is commonly read through the fluorescence of an indicator in the cells.

Where only a bound is given, the exact number is not on record here.

human P2X3 receptor, sequence (P56373 whole entry): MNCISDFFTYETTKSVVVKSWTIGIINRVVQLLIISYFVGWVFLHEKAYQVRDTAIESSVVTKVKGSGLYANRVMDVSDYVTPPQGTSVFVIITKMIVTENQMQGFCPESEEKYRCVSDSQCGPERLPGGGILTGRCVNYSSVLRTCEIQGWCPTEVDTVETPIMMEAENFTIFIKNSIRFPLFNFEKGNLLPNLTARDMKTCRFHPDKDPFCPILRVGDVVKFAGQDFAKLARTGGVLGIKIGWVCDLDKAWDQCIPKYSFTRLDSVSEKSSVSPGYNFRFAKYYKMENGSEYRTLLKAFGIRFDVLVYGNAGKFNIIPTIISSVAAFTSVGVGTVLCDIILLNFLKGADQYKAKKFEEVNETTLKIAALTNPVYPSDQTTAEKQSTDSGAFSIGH
human P2X2/3 receptor, sequence (P56373 whole entry): as above
human P2X2/3 receptor, sequence (Q9UBL9 whole entry): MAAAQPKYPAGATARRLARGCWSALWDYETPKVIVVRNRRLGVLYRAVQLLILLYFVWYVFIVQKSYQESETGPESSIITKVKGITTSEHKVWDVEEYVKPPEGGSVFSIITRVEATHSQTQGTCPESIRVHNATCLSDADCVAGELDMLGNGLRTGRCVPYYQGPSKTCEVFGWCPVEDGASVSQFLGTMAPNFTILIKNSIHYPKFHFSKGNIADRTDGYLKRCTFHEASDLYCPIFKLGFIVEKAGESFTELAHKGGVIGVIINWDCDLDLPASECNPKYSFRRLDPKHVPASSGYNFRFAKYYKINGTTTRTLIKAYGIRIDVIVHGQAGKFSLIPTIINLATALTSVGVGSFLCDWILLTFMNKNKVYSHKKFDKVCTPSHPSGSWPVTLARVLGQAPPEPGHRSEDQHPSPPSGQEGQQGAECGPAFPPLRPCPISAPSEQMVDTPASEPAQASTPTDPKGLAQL

As for `C#CCOc1cc(C(=O)N[C@H](C)c2cnc(C(F)(F)F)nc2)cc(-c2ncc(C)s2)c1` [Example 36, 3-(5-Methyl-1,3-thiazol-2-yl)-5-(prop-2-yn-1-yloxy)-N-{(1R)-1-[2-(trifluoromethyl)pyrimidin-5-yl]ethyl}benzamide], the IC50 on human P2X3 receptor was 14 nM; at human P2X2/3 receptor, 306 nM.

For `C#CCOc1cc(C(=O)N[C@H](C)c2ccc(C(F)(F)F)nn2)cc(-c2ncc(C)s2)c1` [Example 38, 3-(5-Methyl-1,3-thiazol-2-yl)-5-(prop-2-yn-1-yloxy)-N-[(1R)-1-[6-(trifluoromethyl)pyridazin-3-yl]ethyl]benzamide], the figures for the IC50 at human P2X3 receptor and on human P2X2/3 receptor were 55 nM and 1140 nM, respectively.

Take `C#CCOc1cc(C(=O)N[C@H](C)c2cnc(C)nc2)cc(-c2ncc(C)s2)c1` [Example 39, N-[(1R)-1-(2-Methylpyrimidin-5-yl)ethyl]-3-(5-methyl-1,3-thiazol-2-yl)-5-(prop-2-yn-1-yloxy)benzamide]: the IC50 on human P2X3 receptor is 81 nM; at human P2X2/3 receptor, 1650 nM.

Consider `CC#CCOc1cc(C(=O)N[C@H](C)c2cnc(C(F)(F)F)nc2)cc(-c2ncc(C)s2)c1` [Example 40, 3-(But-2-yn-1-yloxy)-5-(5-methyl-1,3-thiazol-2-yl)-N-[(1R)-1-[2-(trifluoromethyl)pyrimidin-5-yl]ethyl]benzamide], for which the IC50 at human P2X3 receptor worked out at 16 nM; on human P2X2/3 receptor it was 383 nM.

For the molecule `CC#CCOc1cc(C(=O)N[C@H](C)c2nnc(C)s2)cc(-c2ncc(C)s2)c1` [Example 41, 3-(But-2-yn-1-yloxy)-N-[(1R)-1-(5-methyl-1,3,4-thiadiazol-2-yl)ethyl]-5-(5-methyl-1,3-thiazol-2-yl)benzamide], the IC50 on human P2X3 receptor was 130 nM; at human P2X2/3 receptor, 1590 nM.

On to `Cc1ncc([C@@H](C)NC(=O)c2cc(OC3COC3)cc(-c3ncc(C)s3)c2)cn1` [Example 43, N-[(1R)-1-(2-Methylpyrimidin-5-yl)ethyl]-3-(5-methyl-1,3-thiazol-2-yl)-5-(oxetan-3-yloxy)benzamide], for which the results for the IC50 at human P2X3 receptor and on human P2X2/3 receptor were 50 nM and 2690 nM, respectively.

As to `Cc1cnc(-c2cc(OC3COC3)cc(C(=O)NC(C)c3ncc(Cl)cc3F)c2)s1` (stereo not shown) [Example 44, N-[1-(5-Chloro-3-fluoropyridin-2-yl)ethyl]-3-(5-methyl-1,3-thiazol-2-yl)-5-(oxetan-3-yloxy)benzamide], the IC50 on human P2X3 receptor is 11 nM; at human P2X2/3 receptor it was 370 nM.

In the case of `Cc1ccc(CNC(=O)c2cc(OC3COC3)cc(-c3ncc(C)s3)c2)nn1` [Example 45, N-[(6-Methylpyridazin-3-yl)methyl]-3-(5-methyl-1,3-thiazol-2-yl)-5-(oxetan-3-yloxy)benzamide], the values for the IC50 on human P2X3 receptor and on human P2X2/3 receptor were 212 nM and 1510 nM, respectively.

`Cc1cnc(-c2cc(OC3COC3)cc(C(=O)N[C@H](C)c3ccc(Cl)cn3)c2)s1` [Example 46, N-[(1R)-1-(5-Chloropyridin-2-yl)ethyl]-3-(5-methyl-1,3-thiazol-2-yl)-5-(oxetan-3-yloxy)benzamide]: the values for the IC50 at human P2X3 receptor and on human P2X2/3 receptor were 10 nM and 389 nM, respectively.

As for `Cc1ccc([C@@H](C)NC(=O)c2cc(OC3COC3)cc(-c3ncc(C)s3)c2)nn1` [Example 47, N-[(1R)-1-(6-Methylpyridazin-3-yl)ethyl]-3-(5-methyl-1,3-thiazol-2-yl)-5-(oxetan-3-yloxy)benzamide], the IC50 at human P2X3 receptor is 82 nM; at human P2X2/3 receptor, 621 nM.

Turning to `Cc1cnc(-c2cc(OC3COC3)cc(C(=O)NC(C)c3ncc(F)cc3Cl)c2)s1` (stereo not shown) [Example 49, N-[1-(3-Chloro-5-fluoropyridin-2-yl)ethyl]-3-(5-methyl-1,3-thiazol-2-yl)-5-(oxetan-3-yloxy)benzamide], the results for the IC50 on human P2X3 receptor and on human P2X2/3 receptor were 132 nM and 1520 nM, respectively.

For `Cc1cnc(-c2cc(OC3COC3)cc(C(=O)N[C@H](C)c3nnc(C)s3)c2)s1` [Example 50, N-[(1R)-1-(5-Methyl-1,3,4-thiadiazol-2-yl)ethyl]-3-(5-methyl-1,3-thiazol-2-yl)-5-(oxetan-3-yloxy)benzamide], the IC50 at human P2X3 receptor is 77 nM; on human P2X2/3 receptor, 982 nM.

For the molecule `Cc1cnc(-c2cc(OC3COC3)cc(C(=O)NCc3ccc(C(F)(F)F)nn3)c2)s1` [Example 52, 3-(5-methyl-1,3-thiazol-2-yl)-5-(oxetan-3-yloxy)-N-{[6-(trifluoromethyl)pyridazin-3-yl]methyl}benzamide], the IC50 on human P2X3 receptor is 194 nM; at human P2X2/3 receptor, 564 nM.

Regarding `CC[C@@H](NC(=O)c1cc(OC2COC2)cc(-c2ncc(C)s2)c1)c1cnc(C(F)(F)F)nc1` [Example 53, 3-(5-methyl-1,3-thiazol-2-yl)-5-(oxetan-3-yloxy)-N-{(1R)-1-[2-(trifluoromethyl)pyrimidin-5-yl]propyl}benzamide], the IC50 is 318 nM at human P2X3 receptor and 2740 nM on human P2X2/3 receptor.

On to `Cc1cnc(CNC(=O)c2cc(OC[C@@H]3CCCO3)cc(-c3ncc(C)s3)c2)cn1` [Example 56, N-[(5-Methylpyrazin-2-yl)methyl]-3-(5-methyl-1,3-thiazol-2-yl)-5-[(2S)-tetrahydrofuran-2-ylmethoxy]benzamide], for which the IC50 on human P2X3 receptor was 148 nM; at human P2X2/3 receptor, no less than 10000 nM.

For `Cc1cnc([C@@H](C)NC(=O)c2cc(OC[C@@H]3CCCO3)cc(-c3ncc(C)s3)c2)cn1` [Example 57, N-[(1R)-1-(5-Methylpyrazin-2-yl)ethyl]-3-(5-methyl-1,3-thiazol-2-yl)-5-[(2S)-tetrahydrofuran-2-ylmethoxy]benzamide], the IC50 on human P2X3 receptor was determined as 25 nM; at human P2X2/3 receptor it was 2840 nM.

Turning to `Cc1cnc(-c2cc(OC[C@@H]3CCCO3)cc(C(=O)N[C@H](C)c3cnc(C(F)(F)F)nc3)c2)s1` [Example 58, 3-(5-Methyl-1,3-thiazol-2-yl)-5-[(2S)-tetrahydrofuran-2-ylmethoxy]-N-{(1R)-1-[2-(trifluoromethyl)pyrimidin-5-yl]ethyl}benzamide], the IC50 at human P2X3 receptor came to 4 nM; on human P2X2/3 receptor, 461 nM.

Turning to `Cc1ccc([C@@H](C)NC(=O)c2cc(OC[C@@H]3CCCO3)cc(-c3ncc(C)s3)c2)nn1` [Example 59, N-[(1R)-1-(6-Methylpyridazin-3-yl)ethyl]-3-(5-methyl-1,3-thiazol-2-yl)-5-[(2S)-tetrahydrofuran-2-ylmethoxy]benzamide], the IC50 at human P2X3 receptor was determined as 13 nM; on human P2X2/3 receptor it was 507 nM.

Regarding `Cc1cnc(-c2cc(OC[C@@H]3CCCO3)cc(C(=O)N[C@H](C)c3ccc(C(F)(F)F)nn3)c2)s1` [Example 60, 3-(5-Methyl-1,3-thiazol-2-yl)-5-[(2S)-tetrahydrofuran-2-ylmethoxy]-N-{(1R)-1-[6-(trifluoromethyl)pyridazin-3-yl]ethyl}benzamide], the IC50 at human P2X3 receptor came out at 11 nM; on human P2X2/3 receptor it was 578 nM.

Regarding `Cc1ccc([C@@H](C)NC(=O)c2cc(OC[C@H]3CCCO3)cc(-c3ncc(C)s3)c2)nn1` [Example 61, N-[(1R)-1-(6-methylpyridazin-3-yl)ethyl]-3-(5-methyl-1,3-thiazol-2-yl)-5-[(2R)-tetrahydrofuran-2-ylmethoxy]benzamide], the values for the IC50 at human P2X3 receptor and at human P2X2/3 receptor were 14 nM and 428 nM, respectively.

As for `Cc1ccc(CNC(=O)c2cc(OC[C@H]3CCCO3)cc(-c3ncc(C)s3)c2)nn1` [Example 62, N-[(6-Methylpyridazin-3-yl)methyl]-3-(5-methyl-1,3-thiazol-2-yl)-5-[(2R)-tetrahydrofuran-2-ylmethoxy]benzamide], the figures for the IC50 at human P2X3 receptor and at human P2X2/3 receptor were 85 nM and 1440 nM, respectively.

As to `Cc1cnc(-c2cc(OC[C@H]3CCCO3)cc(C(=O)N[C@H](C)c3cnc(C(F)(F)F)nc3)c2)s1` [Example 63, 3-(5-Methyl-1,3-thiazol-2-yl)-5-[(2R)-tetrahydrofuran-2-ylmethoxy]-N-{(1R)-1-[2-(trifluoromethyl)pyrimidin-5-yl]ethyl}benzamide], the values for the IC50 at human P2X3 receptor and at human P2X2/3 receptor were 4 nM and 118 nM, respectively.

`Cc1cnc([C@@H](C)NC(=O)c2cc(OC[C@H]3CCCO3)cc(-c3ncc(C)s3)c2)cn1` [Example 64, N-[(1R)-1-(5-methylpyrazin-2-yl)ethyl]-3-(5-methyl-1,3-thiazol-2-yl)-5-[(2R)-tetrahydrofuran-2-ylmethoxy]benzamide]: the results for the IC50 at human P2X3 receptor and at human P2X2/3 receptor were 53 nM and 984 nM, respectively.

Take `Cc1cnc(-c2cc(OC[C@H]3CCOC3)cc(C(=O)NC(C)c3ncc(Cl)cc3F)c2)s1` (stereo partly drawn) [Example 65, N-[1-(5-Chloro-3-fluoropyridin-2-yl)ethyl]-3-(5-methyL-1,3-thiazol-2-yl)-5-[(3S)-tetrahydrofuran-3-ylmethoxy]benzamide]: the IC50 was determined as 3 nM on human P2X3 receptor and 54 nM at human P2X2/3 receptor.

With `Cc1ccc(CNC(=O)c2cc(OC[C@H]3CCOC3)cc(-c3ncc(C)s3)c2)nn1` [Example 66, N-[(6-Methylpyridazin-3-yl)methyl]-3-(5-methyl-1,3-thiazol-2-yl)-5-[(3S)-tetrahydrofuran-3-ylmethoxy]benzamide], the IC50 was determined as 35 nM at human P2X3 receptor and 6300 nM on human P2X2/3 receptor.

Regarding `Cc1cnc(CNC(=O)c2cc(OC[C@H]3CCOC3)cc(-c3ncc(C)s3)c2)cn1` [Example 67, N-[(5-Methylpyrazin-2-yl)methyl]-3-(5-methyl-1,3-thiazol-2-yl)-5-[(3S)-tetrahydrofuran-3-ylmethoxy]benzamide], the IC50 is 186 nM at human P2X3 receptor and no less than 10000 nM on human P2X2/3 receptor.
